Measurements taken from patent US7572768B2, “Methods for identifying compounds for regulating muscle mass or function using corticotropin releasing factor receptors” (priority 2001, dated 2009).
Ends that are not written are not given here.

Columns and labels:
Type in all cases: in vivo
skeletal muscle atrophy [1] = test: animal models of skeletal muscle atrophy (summary of FIGS. 1-9); details: theophylline administered alone in these atrophy models
Protocol: Theophylline was added to potentiate the duration and magnitude of action of the CRFR agonist therefore resulting in increased efficacy of these compounds. […] Statistical significance of the results was determined using ANCOVA (Douglas C. Montgomery, Design and Analysis of Experiments, John Wiley and Sons, New York (2nd ed. 1984)). Abbreviations used in FIGS. 1-9: g-gram; SEM-standard error of the mean.

[2] = system: denervation-induced atrophy of skeletal muscle; test: mouse sciatic nerve denervation atrophy model; details: FIG. 5, day nine
Protocol: Legend: A—physiological saline (control); B—sauvagine (0.01 mg/kg)+theophylline; C—sauvagine (0.03 mg/kg)+theophylline; D—sauvagine (0.1 mg/kg)+theophylline; E—sauvagine (1.0 mg/kg)+theophylline; *—p≦0.05 compared to saline. Following denervation of the right sciatic nerve, male mice were injected subcutaneously in the midscapular region twice daily with sauvagine, at the doses indicated above or vehicle control (physiological saline) for nine days. Sauvagine was co-administered with 30 mg/kg theophylline. On day nine, the medial gastrocnemius muscle was removed and weighed to determine the degree of atrophy.
Legend: A—water (control); B—sauvagine (0.1 mg/kg/d); C—sauvagine (0.3 mg/kg/d); D—sauvagine (1.0 mg/kg/d); *—p≦0.05 compared to water. Following denervation of the right sciatic nerve, male mice were dosed with either sauvagine or vehicle control (physiological saline) by continuous infusion using an Alzet osmotic minipump at 5 μl/hr until the end of the experimental period (without additional theophylline). The daily delivered dose of sauvagine is indicated above. Minipump implantation was performed at the time of sciatic nerve denervation. On day nine the tibialis anterior muscle was removed and weighed to determine the degree of atrophy.
Legend: A—water (control); B—sauvagine (1 mg/kg/d); C—urocortin (1.0 mg/kg/d); *—p≦0.05 compared to water. Following denervation of the right sciatic nerve, male mice were dosed with the above indicated agents or vehicle control (physiological saline) by continuous infusion using an Alzet osmotic minipump at 5 μl/hr until the end of the experimental period (without additional theophylline). The daily delivered dose of the agents is indicated above. Minipump implantation was performed at the same time as the sciatic nerve denervation. On day nine the tibialis anterior muscle was removed and weighed to determine the degree of atrophy.
Legend: A-C—wild-type mice; D-F—CRF2R knockout mice. A and D—water (control); B and E—sauvagine (0.3 mg/kg/d); C and F—sauvagine (1.0 mg/kg/d); *—p≦0.05 compared to saline. Following denervation of the right sciatic nerve, female wild-type and CRF2R knockout mice were dosed with sauvagine or vehicle control by continuous infusion using an Alzet osmotic minipump at 5 μl/hr for nine days at the daily delivered dose indicated above. On day nine, the tibialis anterior muscle was removed and weighed to determine the degree of atrophy.
The sciatic nerve denervation atrophy model involves anesthetizing the animal followed by the surgical removal of a short segment of either the right or left sciatic nerve, e.g., in mice the sciatic nerve is isolated approximately at the midpoint along the femur and a 3-5 mm segment is removed. This denervates the lower hind limb musculature resulting in atrophy of these muscles. Typically, innervation to the biceps femoris is left intact to provide satisfactory motion of the knee for virtually normal ambulation. Typically, in untreated animals, muscle mass of the denervated muscles is reduced 30-50% ten days following denervation. Following denervation, test compounds are administered e.g., by injection or by continuous infusion, e.g., via implantation of an osmotic minipump (e.g., Alzet, Palo Alto, Calif.), to determine their effect on denervation induced skeletal muscle atrophy. At various times following denervation, the animals are euthanized and lower leg muscles are dissected rapidly from both the denervated and nondenervated legs, the muscles, cleaned of tendons and connective tissue, are weighed. The extent of atrophy in the affected muscles is analyzed, for example, by measuring muscle mass, muscle cross-sectional area, myofiber cross-sectional area or contractile protein content.

[3] = system: disuse-induced atrophy of skeletal muscle; test: mouse leg casting disuse atrophy model; details: male mice, 0.3 mg/kg s.c. twice daily + theophylline 30 mg/kg i.p., ten days
Protocol: (§1) Legend: A—physiological saline (control); B—theophylline; C—sauvagine (0.03 mg/kg)+theophylline; D—sauvagine (0.1 mg/kg)+theophylline; E—sauvagine (0.3 mg/kg)+theophylline; *—p≦0.05 compared to saline. Following casting of the right hind leg, male mice were injected subcutaneously in the midscapular region twice daily, with sauvagine or vehicle control (physiological saline) for ten days at the daily delivered dose indicated. Sauvagine was co-administered with twice daily intra-peritoneal dosing of the phosphodiesterase inhibitor theophylline (30 mg/kg). On day ten, the medial gastrocnemius and tibialis anterior muscles were removed and weighed to determine the degree of atrophy.
as §1, with “B—urocortin” for “B—theophylline; C—sauvagine (0.03 mg/kg)+theophylline; D—sauvagine (0.1 mg/kg)+theophylline; E—sauvagine”, “urocortin” for “sauvagine”, “days. Urocortin was administered” for “days”, “doses indicated in the description of FIGS. 6A and 6B. Urocortin” for “daily delivered dose indicated. Sauvagine”
Legend: A—non casted muscle control; B—casted muscle, saline control; C—casted muscle, sauvagine (0.3 mg/kg)+theophylline (30 mg/kg); *—p≦0.05 compared to saline. Following casting of the right hind leg, male mice were injected subcutaneously in the midscapular region twice daily, with either sauvagine or vehicle control (physiological saline) for ten days at the doses indicated above. Sauvagine was co-administered 30 mg/kg theophylline. On day ten, the EDL and soleus muscles were removed and absolute force and mass measurements taken to determine the degree of atrophy.
The leg casting disuse atrophy model involves casting one hind leg of an animal from the knee down through the foot. Typically, muscle mass is reduced 20-40% after ten days of casting. Following casting, test compounds are administered by injection or by continuous infusion via implantation of an osmotic minipump (e.g., Alzet, Palo Alto, Calif.) to determine their effect on leg casting induced skeletal muscle atrophy. At various times following leg casting, the extent of atrophy in the affected muscles is analyzed as described above for the denervation model.
The extensor digitorum longus (EDL) and soleus muscles are removed, tendon-to-tendon from the casted mouse leg. A silk suture is tied to each tendon of the isolated muscles and the muscles are placed into a plexiglass chamber filled with Ringer solution (137 mM sodium chloride, 24 mM sodium bicarbonate, 11 mM glucose, 5 mM potassium chloride, 1 mM magnesium sulfate, 1 mM sodium phosphate, 0.025 mM tubocurarine, all at pH 7.4 and oxygenated with 95% oxygen/5% carbon dioxide) constantly bubbled with 95% oxygen/5% carbon dioxide maintained at 25° C. Muscles are aligned horizontally between a servomotor lever arm (Model 305B-LR Cambridge Technology Inc., Watertown Mass., USA) and the stainless steel hook of a force transducer (Model BG-50; Kulite Semiconductor Products Inc., Leonia, N.J., USA) and field stimulated by pulses transmitted between two platinum electrodes placed longitudinally on either side of the muscle. Square wave pulses (0.2 ms duration) generated by a personal computer with a Labview board (Model PCI-MIO 16E-4), Labview Inc., Austin, Tex., USA) are amplified (Acurus power amplifier model A25, Dobbs Ferry, N.Y., USA) to increase titanic contraction. Stimulation voltage and muscle length (Lo) are adjusted to obtain maximum isometric twitch force. Maximum titanic force production (Po) is determined from the plateau of the frequency-force relationship.

skeletal muscle atrophy [4] = test: Example 13: prophylactic treatment of skeletal muscle atrophy in comatose subject; details: human 60 kg, slow i.v. infusion once each day, 5 ml of 12 mg/ml stock in 500 ml saline
Protocol: A human subject weighing 60 kg is admitted to the hospital in a comatose state. The subject is treated by this method to prevent atrophy of the skeletal muscle of the entire body due to disuse in the comatose state. Specifically, once each day while in the coma, the subject is administered, via slow intravenous infusion, approximately 500 ml of an aqueous solution that is prepared by addition of 5 ml of the following stock solution to 500 ml of sterile saline: […]

For `Cn1c(=O)c2[nH]cnc2n(C)c1=O` [Theophylline, theophylline], which “effect on skeletal muscle atrophy” value (skeletal muscle atrophy [1]) is on record?
Its value is “had no effect”.

How did the “hypertrophy of the non-denervated leg (tibialis anterior muscle)” value ([2]; 1.0 mg/kg/d by osmotic minipump) turn out when “urocortin (DNPSLSIDLTFHLLRTLLELARTQSQRERAEQNRIIFDSV; ends and bridges not checked; UniProt P55089 83-122, looked up) [mammalian congener of urotensin, CRFR agonist (Bachem Biosciences, Inc.)]” was run?
The value was “hypertrophy of the non-denervated leg was observed”.

And the “denervation-induced atrophy of the tibialis anterior muscle (muscle weight)” value ([2]; male mice, 1 mg/kg/d continuous infusion by osmotic minipump, no theophylline)?
Its value is “inhibit denervation-induced atrophy”.

And the “disuse-induced atrophy of the tibialis anterior muscle (muscle weight)” value ([3]; FIG. 6A)?
Its value is “inhibits disuse-induced atrophy”.

And the “disuse-induced atrophy of the medial gastrocnemius muscle (muscle weight)” value ([3]; FIG. 6B)?
The value was “inhibits disuse-induced atrophy”.

Which “skeletal muscle mass and function” value (skeletal muscle atrophy [4]) does the source give for “Urocortin-II (VILSLDVPIGLLRILLEQARYKAARNQAATNAQILAHV; listed as Mus musculus) [CRF analog]” here?
Its value is “measurable preservation of skeletal muscle mass and function”.
